Data from paper PMC11207571, “Applicability of MDR1 Overexpressing Abcb1KO-MDCKII Cell Lines for Investigating In Vitro Species Differences and Brain Penetration Prediction” (Pharmaceutics, 2024).

Biological target: T1, mouse Mdr1a (Mus musculus, UniProt P21447)
Assay: Bidirectional transport assay, efflux ratio in Abcb1KO-MDCKII mMDR1 cells
Details: mouse, pH 7.4
Method in brief: (§1)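 Compound concentrations determined by HPLC-MS/MS (SRM), 0.1% formic acid water/acetonitrile eluents; cassette pools of 3–4 analytes.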

T1 sequence (P21447 whole entry): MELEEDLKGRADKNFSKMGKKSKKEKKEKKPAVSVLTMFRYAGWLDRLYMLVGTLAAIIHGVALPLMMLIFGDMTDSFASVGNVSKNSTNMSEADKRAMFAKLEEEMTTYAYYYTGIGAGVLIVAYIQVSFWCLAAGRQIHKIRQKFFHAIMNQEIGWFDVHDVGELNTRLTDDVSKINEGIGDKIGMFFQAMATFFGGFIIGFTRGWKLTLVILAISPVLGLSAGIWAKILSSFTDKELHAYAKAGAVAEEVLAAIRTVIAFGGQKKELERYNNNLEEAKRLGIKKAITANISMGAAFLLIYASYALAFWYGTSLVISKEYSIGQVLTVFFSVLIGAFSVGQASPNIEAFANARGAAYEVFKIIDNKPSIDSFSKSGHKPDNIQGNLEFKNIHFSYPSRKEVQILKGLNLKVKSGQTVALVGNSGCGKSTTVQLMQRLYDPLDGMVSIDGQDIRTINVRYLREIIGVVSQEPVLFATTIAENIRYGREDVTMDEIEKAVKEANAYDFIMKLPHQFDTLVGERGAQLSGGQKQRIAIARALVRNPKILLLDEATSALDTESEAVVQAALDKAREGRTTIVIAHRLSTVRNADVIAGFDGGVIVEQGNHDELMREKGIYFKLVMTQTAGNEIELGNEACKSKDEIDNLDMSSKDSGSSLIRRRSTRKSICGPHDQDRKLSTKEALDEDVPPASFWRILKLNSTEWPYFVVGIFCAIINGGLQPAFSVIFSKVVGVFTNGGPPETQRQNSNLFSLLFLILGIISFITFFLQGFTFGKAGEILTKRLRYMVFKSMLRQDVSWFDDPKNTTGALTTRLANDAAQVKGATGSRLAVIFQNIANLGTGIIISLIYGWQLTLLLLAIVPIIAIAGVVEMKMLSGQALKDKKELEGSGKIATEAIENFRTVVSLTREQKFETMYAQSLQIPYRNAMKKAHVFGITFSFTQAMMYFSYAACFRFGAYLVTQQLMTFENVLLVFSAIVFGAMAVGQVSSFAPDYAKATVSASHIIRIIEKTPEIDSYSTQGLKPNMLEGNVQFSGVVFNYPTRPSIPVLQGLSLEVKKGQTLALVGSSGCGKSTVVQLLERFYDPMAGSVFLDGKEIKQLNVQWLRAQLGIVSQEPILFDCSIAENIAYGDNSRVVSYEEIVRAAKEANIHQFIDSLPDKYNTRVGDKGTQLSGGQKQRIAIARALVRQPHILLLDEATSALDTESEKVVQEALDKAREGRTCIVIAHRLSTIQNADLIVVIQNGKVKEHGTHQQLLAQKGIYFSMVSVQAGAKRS

Compound	efflux ratio at 120 min, 1 µM
OC[C@@H](O)[C@@H](O)[C@H](O)[C@H](O)CO [Mannitol]	1.04 ± 0.16
CN(C)C(=O)C(CCN1CCC(O)(c2ccc(Cl)cc2)CC1)(c1ccccc1)c1ccccc1 [Loperamide]	16 ± 2.75
COc1cc(Cc2cnc(N)nc2N)cc(OC)c1OC [Trimethoprim]	9.04 ± 0.49
CNS(=O)(=O)Cc1ccc2[nH]cc(CCN(C)C)c2c1 [Sumatriptan]	1.76 ± 0.08
Cc1nccn1CC1CCc2c(c3ccccc3n2C)C1=O (stereo not drawn) [Ondansetron]	5.33 ± 0.54

Biological target: T2, rat Mdr1a (Rattus norvegicus, UniProt Q6PSM0)
Assay: Bidirectional transport assay, efflux ratio in Abcb1KO-MDCKII rMDR1 cells
Details: rat, pH 7.4
Method in brief: as §1

T2 sequence (Q6PSM0 1-1272): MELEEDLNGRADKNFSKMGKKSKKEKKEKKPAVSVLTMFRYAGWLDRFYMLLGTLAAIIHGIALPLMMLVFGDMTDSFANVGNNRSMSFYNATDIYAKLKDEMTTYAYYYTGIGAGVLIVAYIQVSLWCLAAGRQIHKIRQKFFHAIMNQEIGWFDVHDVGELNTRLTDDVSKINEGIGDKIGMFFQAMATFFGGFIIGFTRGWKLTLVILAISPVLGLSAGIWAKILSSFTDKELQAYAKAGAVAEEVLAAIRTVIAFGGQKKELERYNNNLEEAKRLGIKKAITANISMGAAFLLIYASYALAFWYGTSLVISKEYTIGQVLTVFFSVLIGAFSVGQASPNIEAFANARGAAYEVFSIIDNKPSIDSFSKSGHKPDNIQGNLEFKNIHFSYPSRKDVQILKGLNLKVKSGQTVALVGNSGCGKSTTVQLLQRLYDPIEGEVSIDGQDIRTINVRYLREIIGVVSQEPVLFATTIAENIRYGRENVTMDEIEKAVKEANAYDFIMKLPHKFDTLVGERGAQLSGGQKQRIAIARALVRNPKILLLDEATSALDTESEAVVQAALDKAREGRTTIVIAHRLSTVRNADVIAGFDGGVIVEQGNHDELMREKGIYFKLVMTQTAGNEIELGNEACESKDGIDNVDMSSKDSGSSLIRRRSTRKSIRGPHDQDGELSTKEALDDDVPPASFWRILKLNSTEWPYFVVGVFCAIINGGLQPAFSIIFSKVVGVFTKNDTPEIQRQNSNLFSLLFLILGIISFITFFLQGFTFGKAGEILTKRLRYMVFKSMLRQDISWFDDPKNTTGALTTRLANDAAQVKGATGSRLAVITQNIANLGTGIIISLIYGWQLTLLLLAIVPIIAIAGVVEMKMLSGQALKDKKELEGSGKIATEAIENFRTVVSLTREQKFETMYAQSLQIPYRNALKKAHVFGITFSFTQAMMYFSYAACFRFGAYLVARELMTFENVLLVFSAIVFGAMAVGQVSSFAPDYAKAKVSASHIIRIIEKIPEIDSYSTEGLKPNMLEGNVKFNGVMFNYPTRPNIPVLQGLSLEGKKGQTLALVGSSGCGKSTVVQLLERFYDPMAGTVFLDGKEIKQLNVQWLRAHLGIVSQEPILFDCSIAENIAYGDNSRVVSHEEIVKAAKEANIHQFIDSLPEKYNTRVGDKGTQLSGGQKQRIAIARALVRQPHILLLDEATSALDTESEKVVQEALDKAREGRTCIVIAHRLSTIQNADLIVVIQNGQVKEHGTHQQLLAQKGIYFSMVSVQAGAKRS

Compound	efflux ratio at 120 min, 1 µM
OC[C@@H](O)[C@@H](O)[C@H](O)[C@H](O)CO [Mannitol]	0.89 ± 0.12
CN(C)C(=O)C(CCN1CCC(O)(c2ccc(Cl)cc2)CC1)(c1ccccc1)c1ccccc1 [Loperamide]	10.5 ± 2.34
COc1cc(Cc2cnc(N)nc2N)cc(OC)c1OC [Trimethoprim]	13.2 ± 0.68
CNS(=O)(=O)Cc1ccc2[nH]cc(CCN(C)C)c2c1 [Sumatriptan]	2.02 ± 0.12
Cc1nccn1CC1CCc2c(c3ccccc3n2C)C1=O (stereo not drawn) [Ondansetron]	7.62 ± 0.39

Biological target: T3, cynomolgus monkey Mdr1 (Macaca fascicularis, UniProt Q8HZQ6)
Assay: Bidirectional transport assay, efflux ratio in Abcb1KO-MDCKII cyMDR1 cells
Details: cynomolgus monkey, pH 7.4
Method in brief: as §1

T3 sequence (Q8HZQ6 1-1283): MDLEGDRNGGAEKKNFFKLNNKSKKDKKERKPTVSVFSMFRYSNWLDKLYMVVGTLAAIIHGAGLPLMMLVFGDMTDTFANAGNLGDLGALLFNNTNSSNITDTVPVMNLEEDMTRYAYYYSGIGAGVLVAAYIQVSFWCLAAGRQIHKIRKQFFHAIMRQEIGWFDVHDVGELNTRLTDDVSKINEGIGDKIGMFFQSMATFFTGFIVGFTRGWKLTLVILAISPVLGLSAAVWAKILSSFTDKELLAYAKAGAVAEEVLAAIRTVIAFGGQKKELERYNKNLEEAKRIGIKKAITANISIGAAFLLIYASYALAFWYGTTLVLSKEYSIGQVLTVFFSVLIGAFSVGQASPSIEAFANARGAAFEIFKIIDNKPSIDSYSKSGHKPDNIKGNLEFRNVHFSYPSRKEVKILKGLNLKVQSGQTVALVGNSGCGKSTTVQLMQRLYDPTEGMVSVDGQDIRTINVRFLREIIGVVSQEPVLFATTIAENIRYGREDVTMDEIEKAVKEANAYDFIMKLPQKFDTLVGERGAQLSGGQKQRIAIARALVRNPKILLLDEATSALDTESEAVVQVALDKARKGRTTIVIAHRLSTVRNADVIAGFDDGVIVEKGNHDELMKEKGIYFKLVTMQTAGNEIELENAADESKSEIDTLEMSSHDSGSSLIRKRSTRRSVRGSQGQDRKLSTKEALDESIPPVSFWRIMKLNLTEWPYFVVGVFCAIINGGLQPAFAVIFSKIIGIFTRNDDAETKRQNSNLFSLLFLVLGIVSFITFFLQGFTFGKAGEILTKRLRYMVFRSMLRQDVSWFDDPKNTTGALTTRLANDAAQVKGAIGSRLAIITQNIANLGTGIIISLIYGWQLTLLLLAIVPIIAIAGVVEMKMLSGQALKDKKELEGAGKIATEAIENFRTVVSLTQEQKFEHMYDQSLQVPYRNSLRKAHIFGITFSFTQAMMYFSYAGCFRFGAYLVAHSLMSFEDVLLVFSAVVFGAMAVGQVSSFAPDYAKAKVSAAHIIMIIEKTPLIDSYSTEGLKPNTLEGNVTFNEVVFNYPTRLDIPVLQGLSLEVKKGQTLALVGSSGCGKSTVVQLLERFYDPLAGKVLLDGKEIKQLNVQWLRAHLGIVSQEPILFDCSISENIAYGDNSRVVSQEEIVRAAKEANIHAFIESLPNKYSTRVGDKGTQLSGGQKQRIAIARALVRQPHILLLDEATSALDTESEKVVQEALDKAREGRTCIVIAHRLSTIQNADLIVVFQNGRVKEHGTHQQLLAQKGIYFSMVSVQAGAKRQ

Compound	efflux ratio at 120 min, 1 µM
OC[C@@H](O)[C@@H](O)[C@H](O)[C@H](O)CO [Mannitol]	0.76 ± 0.1
CN(C)C(=O)C(CCN1CCC(O)(c2ccc(Cl)cc2)CC1)(c1ccccc1)c1ccccc1 [Loperamide]	6.38 ± 0.55
COc1cc(Cc2cnc(N)nc2N)cc(OC)c1OC [Trimethoprim]	1.65 ± 0.1
CNS(=O)(=O)Cc1ccc2[nH]cc(CCN(C)C)c2c1 [Sumatriptan]	1.53 ± 0.1
Cc1nccn1CC1CCc2c(c3ccccc3n2C)C1=O (stereo not drawn) [Ondansetron]	3.77 ± 0.64

System: not listed separately
Assay: Bidirectional transport assay, efflux ratio in Abcb1KO-MDCKII-Mock control cells
Details: dog, MDCK, pH 7.4
Protocol: Eluent A consisted of 0.1% formic acid in water, eluent B consisted of 0.1% formic acid in acetonitrile. Then, 10 µL samples were injected into the HPLC-MS/MS system. Mass spectrometric detection was performed in SRM mode, and ion transitions for each analyte were optimized during method development. Samples were analyzed in pools, with each pool containing three to four analytes.

Compound	efflux ratio at 120 min, 1 µM
OC[C@@H](O)[C@@H](O)[C@H](O)[C@H](O)CO [Mannitol]	0.96 ± 0.12
CN(C)C(=O)C(CCN1CCC(O)(c2ccc(Cl)cc2)CC1)(c1ccccc1)c1ccccc1 [Loperamide]	0.49 ± 0.03
COc1cc(Cc2cnc(N)nc2N)cc(OC)c1OC [Trimethoprim]	0.84 ± 0.06
CNS(=O)(=O)Cc1ccc2[nH]cc(CCN(C)C)c2c1 [Sumatriptan]	0.93 ± 0.04
Cc1nccn1CC1CCc2c(c3ccccc3n2C)C1=O (stereo not drawn) [Ondansetron]	0.7 ± 0.02

Biological target: T3, cynomolgus monkey Mdr1
Assay: cell-based
Details: not given

Compound	IC50 [µM]
CN(C)C(=O)C(CCN1CCC(O)(c2ccc(Cl)cc2)CC1)(c1ccccc1)c1ccccc1 [Loperamide]	6.3 ± 2.27

Biological target: T4, human BCRP (Homo sapiens, UniProt Q9UNQ0)
T4 sequence (Q9UNQ0 1-655): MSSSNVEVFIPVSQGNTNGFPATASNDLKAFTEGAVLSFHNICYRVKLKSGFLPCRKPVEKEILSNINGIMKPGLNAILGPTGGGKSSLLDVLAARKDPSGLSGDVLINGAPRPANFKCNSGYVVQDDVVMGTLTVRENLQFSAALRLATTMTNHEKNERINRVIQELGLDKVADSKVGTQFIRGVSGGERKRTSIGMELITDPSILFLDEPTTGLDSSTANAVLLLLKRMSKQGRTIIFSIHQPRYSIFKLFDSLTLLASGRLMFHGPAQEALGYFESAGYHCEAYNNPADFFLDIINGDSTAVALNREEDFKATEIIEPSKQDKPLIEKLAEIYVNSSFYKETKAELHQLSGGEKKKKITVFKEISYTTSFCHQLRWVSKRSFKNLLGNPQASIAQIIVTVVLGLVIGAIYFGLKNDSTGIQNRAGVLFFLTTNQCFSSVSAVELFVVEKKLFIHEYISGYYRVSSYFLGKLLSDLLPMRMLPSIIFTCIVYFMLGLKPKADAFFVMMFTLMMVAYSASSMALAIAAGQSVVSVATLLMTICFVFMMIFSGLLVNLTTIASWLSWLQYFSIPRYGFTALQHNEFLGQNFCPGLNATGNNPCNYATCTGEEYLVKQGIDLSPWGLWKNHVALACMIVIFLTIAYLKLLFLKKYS
Assay: Bidirectional transport assay, efflux ratio in MDCKII-BCRP cells
Details: human, pH 7.4
Method in brief: as §1

Compound	efflux ratio at 120 min, 1 µM
OC[C@@H](O)[C@@H](O)[C@H](O)[C@H](O)CO [Mannitol]	0.73 ± 0.2
CN(C)C(=O)C(CCN1CCC(O)(c2ccc(Cl)cc2)CC1)(c1ccccc1)c1ccccc1 [Loperamide]	2 ± 0.23
COc1cc(Cc2cnc(N)nc2N)cc(OC)c1OC [Trimethoprim]	3.08 ± 0.17
CNS(=O)(=O)Cc1ccc2[nH]cc(CCN(C)C)c2c1 [Sumatriptan]	1.74 ± 0.24
Cc1nccn1CC1CCc2c(c3ccccc3n2C)C1=O (stereo not drawn) [Ondansetron]	4.28 ± 0.71

Biological target: T1, mouse Mdr1a
Assay: Inhibition of 3H-digoxin or 3H-quinidine bidirectional transport in mMDR1 cells
Format: cell-based
Design: mouse Mdr1a (NM_011076.3); expressed in transfected cells; host or cells: Abcb1KO-MDCKII (canine kidney, endogenous Abcb1 knocked out), transduced, single-cell clone
Details: Inhibition of digoxin transport IC50±SD, mMDR1, probe 3H-digoxin 1 µM, 120 min; IC50 from ER

Compound	IC50 [µM]
CN(C)C(=O)C(CCN1CCC(O)(c2ccc(Cl)cc2)CC1)(c1ccccc1)c1ccccc1 [Loperamide]	6.5 ± 1.1

Same assay, conditions: Inhibition of quinidine transport IC50±SD, mMDR1, probe 3H-quinidine 1 µM, 60 min; IC50 from ER

Compound	IC50 [µM]
CN(C)C(=O)C(CCN1CCC(O)(c2ccc(Cl)cc2)CC1)(c1ccccc1)c1ccccc1 [Loperamide]	0.96 ± 0.33

Biological target: T5, human MDR1 (Homo sapiens, UniProt P08183)
Assay: Bidirectional transport assay, efflux ratio in Abcb1KO-MDCKII hMDR1 cells
Details: human, MDCK-MDR1, pH 7.4
Method in brief: as §1

T5 sequence (P08183 whole entry): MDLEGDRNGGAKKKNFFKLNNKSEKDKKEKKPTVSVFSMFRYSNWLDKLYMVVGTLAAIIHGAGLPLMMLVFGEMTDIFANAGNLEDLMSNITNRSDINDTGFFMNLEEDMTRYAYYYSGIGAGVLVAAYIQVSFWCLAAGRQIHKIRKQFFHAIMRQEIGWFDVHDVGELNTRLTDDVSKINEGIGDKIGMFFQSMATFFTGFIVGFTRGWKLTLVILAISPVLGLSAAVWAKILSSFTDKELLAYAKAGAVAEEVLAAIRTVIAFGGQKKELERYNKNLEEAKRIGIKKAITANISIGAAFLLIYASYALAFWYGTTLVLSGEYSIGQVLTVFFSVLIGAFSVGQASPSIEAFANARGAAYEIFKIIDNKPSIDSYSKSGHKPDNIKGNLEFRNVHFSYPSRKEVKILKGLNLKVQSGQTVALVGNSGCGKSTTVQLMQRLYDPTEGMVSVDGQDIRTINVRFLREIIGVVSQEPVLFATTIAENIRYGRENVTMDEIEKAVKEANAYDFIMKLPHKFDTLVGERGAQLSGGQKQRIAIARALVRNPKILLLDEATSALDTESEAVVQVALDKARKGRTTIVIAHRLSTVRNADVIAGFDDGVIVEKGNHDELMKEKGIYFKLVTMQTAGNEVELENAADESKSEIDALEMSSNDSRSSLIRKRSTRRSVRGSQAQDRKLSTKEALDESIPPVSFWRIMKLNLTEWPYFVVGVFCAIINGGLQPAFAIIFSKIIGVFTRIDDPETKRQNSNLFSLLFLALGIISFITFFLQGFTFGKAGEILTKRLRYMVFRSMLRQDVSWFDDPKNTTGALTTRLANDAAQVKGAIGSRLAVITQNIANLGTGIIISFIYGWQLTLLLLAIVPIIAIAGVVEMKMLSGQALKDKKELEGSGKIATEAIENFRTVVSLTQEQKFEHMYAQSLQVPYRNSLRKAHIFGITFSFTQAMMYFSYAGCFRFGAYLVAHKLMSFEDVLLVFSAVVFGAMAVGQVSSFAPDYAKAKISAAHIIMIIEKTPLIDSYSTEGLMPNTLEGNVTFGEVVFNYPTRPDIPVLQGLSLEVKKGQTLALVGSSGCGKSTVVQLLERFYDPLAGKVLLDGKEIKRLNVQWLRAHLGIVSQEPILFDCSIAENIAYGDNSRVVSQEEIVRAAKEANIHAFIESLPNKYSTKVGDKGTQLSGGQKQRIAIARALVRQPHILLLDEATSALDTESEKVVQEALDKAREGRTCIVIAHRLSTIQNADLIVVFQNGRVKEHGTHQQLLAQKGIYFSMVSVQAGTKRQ

Compound	efflux ratio at 120 min, 1 µM
OC[C@@H](O)[C@@H](O)[C@H](O)[C@H](O)CO [Mannitol]	0.87 ± 0.14
CN(C)C(=O)C(CCN1CCC(O)(c2ccc(Cl)cc2)CC1)(c1ccccc1)c1ccccc1 [Loperamide]	48.7 ± 3.51
COc1cc(Cc2cnc(N)nc2N)cc(OC)c1OC [Trimethoprim]	7.29 ± 0.69
CNS(=O)(=O)Cc1ccc2[nH]cc(CCN(C)C)c2c1 [Sumatriptan]	1.88 ± 0.12
Cc1nccn1CC1CCc2c(c3ccccc3n2C)C1=O (stereo not drawn) [Ondansetron]	5.24 ± 0.68

Biological target: T5, human MDR1
Assay: Inhibition of 3H-digoxin or 3H-quinidine bidirectional transport in hMDR1 cells
Details: Inhibition of digoxin transport IC50±SD, hMDR1, probe 3H-digoxin 1 µM, 120 min; IC50 from ER

Compound	IC50 [µM]
CN(C)C(=O)C(CCN1CCC(O)(c2ccc(Cl)cc2)CC1)(c1ccccc1)c1ccccc1 [Loperamide]	38.3 ± 4.59

Same assay, conditions: Inhibition of quinidine transport IC50±SD, hMDR1, probe 3H-quinidine 1 µM, 60 min; IC50 from ER

Compound	IC50 [µM]
CN(C)C(=O)C(CCN1CCC(O)(c2ccc(Cl)cc2)CC1)(c1ccccc1)c1ccccc1 [Loperamide]	4.75 ± 0.32

Biological target: T2, rat Mdr1a
Assay: Inhibition of 3H-digoxin or 3H-quinidine bidirectional transport in rMDR1 cells
Format: cell-based
Design: rat Mdr1a (NM_133401.1); expressed in transfected cells; host or cells: Abcb1KO-MDCKII (canine kidney, endogenous Abcb1 knocked out), transduced, single-cell clone
Details: Inhibition of digoxin transport IC50±SD, rMDR1, probe 3H-digoxin 1 µM, 120 min; IC50 from ER

Compound	IC50 [µM]
CN(C)C(=O)C(CCN1CCC(O)(c2ccc(Cl)cc2)CC1)(c1ccccc1)c1ccccc1 [Loperamide]	11.1 ± 4.28

Same assay, conditions: Inhibition of quinidine transport IC50±SD, rMDR1, probe 3H-quinidine 1 µM, 30 min; IC50 from ER

Compound	IC50 [µM]
CN(C)C(=O)C(CCN1CCC(O)(c2ccc(Cl)cc2)CC1)(c1ccccc1)c1ccccc1 [Loperamide]	1.01 ± 0.49

System: hMDR1 and hBCRP
Assay: Brain permeability classification from total ER of hMDR1 and hBCRP against in vivo rodent Kp,uu,brain
Details: total ER cut-off 3; in vivo rodent Kp,uu,brain cut-off 0.3
Protocol: MDR1 and/or BCRP substrate properties were investigated by binary classification analysis on CNS+ and CNS− compounds. […] True negative (TN), where there was no efflux and the CNS+ compound crossed the BBB. […] The sensitivity and specificity of the estimation of brain penetration along with MDR1 and BCRP activity were calculated from predictive performance metrics.
First, NET ER was calculated and used for human predictions, (2) NET ER=ER(−inh)[…]ER(+inh) where ER(−inh) is ER in the absence of inhibitor, and ER(+inh) is ER in the presence of inhibitor, for hMDR1 (ERMDR1) or hBCRP (ERBCRP).
To identify the correlation between the in vivo rodent Kp,uu,brain and ERs, 58 compounds with known Kp,uu,brain were selected. An ER of 2 was used as a cut-off to classify MDR1 substrates and a Kp,uu,brain of 0.3 was used as a threshold for CNS penetrant compounds. The resulting graphs are thus divided into four quadrants. Brain penetration (Kp,uu,brain) was used as the logical value true condition, with compounds having Kp,uu,brain ≤ 0.3 considered positive. Q2 and Q3 comprise molecules with impaired brain penetration. […] Molecules in Q4 (true negatives, TN) can freely access the brain (Figure 2). Predictive performance metrics were calculated to show the efficacy of the established cell lines in BBB permeability classification (Table 1). Sensitivity refers to the ability of the model to correctly classify CNS-restricted molecules based on MDR1 substrate nature.
Subsequently, for a more reliable prediction of brain penetration, data generated in the hBCRP cell line were included in the analysis. hBCRP assay conditions and evaluations were identical to that of MDR1 cell lines, which allowed proper comparisons (Figure 2E,F). Total ER was calculated by combining ERs determined in BCRP and hMDR1 cell lines based on Equation (3), with an ER cut-off of 3. […] Eventually, total ERs were also assessed with the Relative Expression Factor (REF) (Equation (4); Figure 2E,F). REF is an in vitro and in vivo correlation scaler, calculated from transporter protein abundances in brain microvessels versus overexpressing cell lines.

Compound	CNS penetration classification based on total ER (hMDR1 + hBCRP)
OC[C@@H](O)[C@@H](O)[C@H](O)[C@H](O)CO [Mannitol]	false negatives
COc1cc(Cc2cnc(N)nc2N)cc(OC)c1OC [Trimethoprim]	false positives
CNS(=O)(=O)Cc1ccc2[nH]cc(CCN(C)C)c2c1 [Sumatriptan]	false negatives
Cc1nccn1CC1CCc2c(c3ccccc3n2C)C1=O (stereo not drawn) [Ondansetron]	false positives

Biological target: T3, cynomolgus monkey Mdr1
Assay: Inhibition of 3H-digoxin or 3H-quinidine bidirectional transport in cyMDR1 cells
Details: Inhibition of quinidine transport IC50±SD, cyMDR1, probe 3H-quinidine 0.1 µM, 60 min; IC50 from ER

Compound	IC50 [µM]
CN(C)C(=O)C(CCN1CCC(O)(c2ccc(Cl)cc2)CC1)(c1ccccc1)c1ccccc1 [Loperamide]	1.36 ± 0.34
